From ChEMBL document CHEMBL3792365, “Dioxol and dihydrodioxin analogs of 2- and 3-phenylacetonitriles as potent anti-cancer agents with nanomolar activity against a variety of human cancer cells” (2016)

Legend:
Type in all cases: functional
[1] = Growth inhibition of human SW620 cells at 10 uM after 48 hrs by sulforhodamine B assay; settings: SW-620, 48 h, values are per cent of control
[2] = Growth inhibition of human SF539 cells at 10 uM after 48 hrs by sulforhodamine B assay; settings: SF-539, 48 h, values are per cent of control
SK-MEL-28 = assay: Growth inhibition of human SK-MEL-28 cells at 10 uM after 48 hrs by sulforhodamine B assay; settings: SK-MEL-28, 48 h, values are per cent of control
K562 = assay: Growth inhibition of human K562 cells at 10 uM after 48 hrs by sulforhodamine B assay; settings: K562, 48 h, values are per cent of control
[3] = Growth inhibition of human HCT116 cells at 10 uM after 48 hrs by sulforhodamine B assay; settings: HCT-116, 48 h, values are per cent of control
786-0 = assay: Growth inhibition of human 786-0 cells at 10 uM after 48 hrs by sulforhodamine B assay; settings: 786-0, 48 h, values are per cent of control
T47D = assay: Growth inhibition of human T47D cells at 10 uM after 48 hrs by sulforhodamine B assay; settings: values are per cent of control
MDA-MB-435 = assay: Growth inhibition of human MDA-MB-435 cells at 10 uM after 48 hrs by sulforhodamine B assay; settings: MDA-MB-435, 48 h, values are per cent of control
[4] = Growth inhibition of human SKOV3 cells at 10 uM after 48 hrs by sulforhodamine B assay; settings: SK-OV-3, 48 h, values are per cent of control
[5] = Growth inhibition of human RXF393 cells at 10 uM after 48 hrs by sulforhodamine B assay; settings: RXF 393, 48 h, values are per cent of control
SN12C = assay: Growth inhibition of human SN12C cells at 10 uM after 48 hrs by sulforhodamine B assay; settings: values are per cent of control
[6] = Growth inhibition of human OVCAR4 cells at 10 uM after 48 hrs by sulforhodamine B assay; settings: OVCAR-4, 48 h, values are per cent of control
[7] = Growth inhibition of human HOP62 cells at 10 uM after 48 hrs by sulforhodamine B assay; settings: HOP-62, 48 h, values are per cent of control
[8] = Growth inhibition of human DU145 cells at 10 uM after 48 hrs by sulforhodamine B assay; settings: DU-145, 48 h, values are per cent of control
[9] = Growth inhibition of human COLO205 cells at 10 uM after 48 hrs by sulforhodamine B assay; settings: COLO 205, 48 h, values are per cent of control
[10] = Growth inhibition of human NCI-ADR-RES cells at 10 uM after 48 hrs by sulforhodamine B assay; settings: values are per cent of control
NCI-H322M = assay: Growth inhibition of human NCI-H322M cells at 10 uM after 48 hrs by sulforhodamine B assay; settings: values are per cent of control
[11] = Growth inhibition of human UACC62 cells at 10 uM after 48 hrs by sulforhodamine B assay; settings: UACC-62, 48 h, values are per cent of control
[12] = Growth inhibition of human SNB19 cells at 10 uM after 48 hrs by sulforhodamine B assay; settings: SNB-19, 48 h, values are per cent of control
[13] = Growth inhibition of human SNB75 cells at 10 uM after 48 hrs by sulforhodamine B assay; settings: SNB-75, 48 h, values are per cent of control
[14] = Growth inhibition of human SF268 cells at 10 uM after 48 hrs by sulforhodamine B assay; settings: SF-268, 48 h, values are per cent of control
[15] = Growth inhibition of human TK10 cells at 10 uM after 48 hrs by sulforhodamine B assay; settings: TK-10, 48 h, values are per cent of control
MDA-MB-468 = assay: Growth inhibition of human MDA-MB-468 cells at 10 uM after 48 hrs by sulforhodamine B assay; settings: MDA-MB-468, 48 h, values are per cent of control
NCI-H460 = assay: Growth inhibition of human NCI-H460 cells at 10 uM after 48 hrs by sulforhodamine B assay; settings: NCI-H460, 48 h, values are per cent of control
HT-29 = assay: Growth inhibition of human HT-29 cells at 10 uM after 48 hrs by sulforhodamine B assay; settings: HT-29, 48 h, values are per cent of control
SR = assay: Growth inhibition of human SR cells at 10 uM after 48 hrs by sulforhodamine B assay; settings: values are per cent of control
KM12 = assay: Growth inhibition of human KM12 cells at 10 uM after 48 hrs by sulforhodamine B assay; settings: KM12, 48 h, values are per cent of control
ACHN = assay: Growth inhibition of human ACHN cells at 10 uM after 48 hrs by sulforhodamine B assay; settings: values are per cent of control
[16] = Growth inhibition of human Caki1 cells at 10 uM after 48 hrs by sulforhodamine B assay; settings: CAKI-1, 48 h, values are per cent of control
MDA-MB-231 = assay: Growth inhibition of human MDA-MB-231 cells at 10 uM after 48 hrs by sulforhodamine B assay; settings: MDA-MB-231, 48 h, values are per cent of control
A549 = assay: Growth inhibition of human A549/ATCC cells at 10 uM after 48 hrs by sulforhodamine B assay; settings: A549, 48 h, values are per cent of control
[17] = Growth inhibition of human BT549 cells at 10 uM after 48 hrs by sulforhodamine B assay; settings: BT-549, 48 h, values are per cent of control
SK-MEL-2 = assay: Growth inhibition of human SK-MEL-2 cells at 10 uM after 48 hrs by sulforhodamine B assay; settings: SK-MEL-2, 48 h, values are per cent of control
NCI-H226 = assay: Growth inhibition of human NCI-H226 cells at 10 uM after 48 hrs by sulforhodamine B assay; settings: NCI-H226, 48 h, values are per cent of control
[18] = Growth inhibition of human HCT15 cells at 10 uM after 48 hrs by sulforhodamine B assay; settings: HCT-15, 48 h, values are per cent of control
[19] = Growth inhibition of human HCC2998 cells at 10 uM after 48 hrs by sulforhodamine B assay; settings: HCC 2998, 48 h, values are per cent of control
[20] = Growth inhibition of human IGROV1 cells at 10 uM after 48 hrs by sulforhodamine B assay; settings: IGROV-1, 48 h, values are per cent of control
SK-MEL-5 = assay: Growth inhibition of human SK-MEL-5 cells at 10 uM after 48 hrs by sulforhodamine B assay; settings: SK-MEL-5, 48 h, values are per cent of control
NCI-H522 = assay: Growth inhibition of human NCI-H522 cells at 10 uM after 48 hrs by sulforhodamine B assay; settings: NCI-H522, 48 h, values are per cent of control
M14 = assay: Growth inhibition of human M14 cells at 10 uM after 48 hrs by sulforhodamine B assay; settings: M14, 48 h, values are per cent of control

SMILES | growth, % of control at 10 µM [1] [%] | growth, % of control at 10 µM [2] [%] | growth, % of control at 10 µM (SK-MEL-28) [%] | growth, % of control at 10 µM (K562) [%] | growth, % of control at 10 µM [3] [%] | growth, % of control at 10 µM (786-0) [%] | growth, % of control at 10 µM (T47D) [%] | growth, % of control at 10 µM (MDA-MB-435) [%] | growth, % of control at 10 µM [4] [%] | growth, % of control at 10 µM [5] [%] | growth, % of control at 10 µM (SN12C) [%] | growth, % of control at 10 µM [6] [%] | growth, % of control at 10 µM [7] [%] | growth, % of control at 10 µM [8] [%] | growth, % of control at 10 µM [9] [%] | growth, % of control at 10 µM [10] [%] | growth, % of control at 10 µM (NCI-H322M) [%] | growth, % of control at 10 µM [11] [%] | growth, % of control at 10 µM [12] [%] | growth, % of control at 10 µM [13] [%] | further results
COc1ccc(/C=C(\C#N)c2ccc3c(c2)OCO3)c2ccccc12 | 10.6 | -42.9 | 43.6 | 19.1 | 21.1 | 40.2 | 38.2 | -26.3 | 26.9 | -17.7 | 38.6 | 49.7 | 44.4 | 14.9 | 7.6 | 10.5 | 34.3 | 25.1 | 36.1 | -3.1 | growth, % of control at 10 µM [14]: 34%; growth, % of control at 10 µM [15]: 43.8%; growth, % of control at 10 µM (MDA-MB-468): -14.5%; growth, % of control at 10 µM (NCI-H460): 13.2%; growth, % of control at 10 µM (HT-29): 10%; growth, % of control at 10 µM (SR): 18.4%; growth, % of control at 10 µM (KM12): 21%; growth, % of control at 10 µM (ACHN): 44.7%; growth, % of control at 10 µM [16]: 30.8%; growth, % of control at 10 µM (MDA-MB-231): 39.4%; growth, % of control at 10 µM (A549): 31.7%; growth, % of control at 10 µM [17]: 26.6%; growth, % of control at 10 µM (SK-MEL-2): 13.1%; growth, % of control at 10 µM (NCI-H226): 38.5%; growth, % of control at 10 µM [18]: 21.4%; growth, % of control at 10 µM [19]: 45.7%; growth, % of control at 10 µM [20]: 36.3%; growth, % of control at 10 µM (SK-MEL-5): 19.1%; growth, % of control at 10 µM (NCI-H522): 1.4%; growth, % of control at 10 µM (M14): 16.2%
N#C/C(=C\c1cccc2ccccc12)c1ccc2c(c1)OCO2 | 35.2 | 67.9 | 64.6 | 21.7 | 32.7 | 77.1 | 67.9 | -28.5 | 61.9 | 64.3 | 75.9 | 68.9 | 75.9 | 77.7 | 56 | 36.5 | 90.5 | 44.7 | 82.1 | 61.6 | growth, % of control at 10 µM [14]: 71%; growth, % of control at 10 µM [15]: 78.2%; growth, % of control at 10 µM (MDA-MB-468): 25.9%; growth, % of control at 10 µM (NCI-H460): 77.8%; growth, % of control at 10 µM (HT-29): 23.5%; growth, % of control at 10 µM (SR): 23.8%; growth, % of control at 10 µM (KM12): 39.2%; growth, % of control at 10 µM (ACHN): 79.3%; growth, % of control at 10 µM [16]: 61.2%; growth, % of control at 10 µM (MDA-MB-231): 48.3%; growth, % of control at 10 µM (A549): 55.9%; growth, % of control at 10 µM [17]: 51.8%; growth, % of control at 10 µM (SK-MEL-2): 59.8%; growth, % of control at 10 µM (NCI-H226): 83%; growth, % of control at 10 µM [18]: 40.6%; growth, % of control at 10 µM [19]: 68.8%; growth, % of control at 10 µM [20]: 68.8%; growth, % of control at 10 µM (SK-MEL-5): 66.2%; growth, % of control at 10 µM (NCI-H522): 47.6%; growth, % of control at 10 µM (M14): 37.9%
